{"source": "patent US20140322315A1", "about": "“CYSTEAMINE AND/OR CYSTAMINE FOR TREATING ISCHEMIC INJURY” (The Regents of the University of California, priority 2011, published 2014)", "test_system": "LAD artery ligation ischemia/reperfusion", "test": "Myocardial ischemia/reperfusion (LAD artery ligation) in mice: infarct area, echocardiography", "assay_type": "in vivo, mice (C57BL/6)", "design": "IA (Ischemic Area): unit not given beside the values", "description": "To analyze ischemic damage and treatment with cysteamine a study in mice (C57BL/6-Male-12 weeks, 25 g) that are either pre-treated or naïve to cysteamine bitartrate was performed as follows.\nPre-treated animals received intra-peritoneal cysteamine, 60 mg/kg twice (120 mg/kg/day) 2 hours before surgery for LAD artery ligation. Following a 60 minute ligation period the obstruction was removed and another dose of cysteamine was given immediately at the time of reperfusion and also twice daily injections for 4 days following reperfusion. A control group received the same volumes of control IV solution injected instead of cysteamine. Acceptable volumes of blood were collected at baseline, and at predetermined time points after the ischemic insult in order to determine levels of surrogate markers of inflammation and plasma cysteamine. […] Before sacrifice, the LAD was re-occluded and Evan's Blue was injected through JVC in order to delineate the non-ischemic area. […] Echocardiography provided ventricular volume data as well as wall function. Hemodynamic studies provided muscle contractility data (specifically systolic data).\nSo far seven mice were studied. Four received control solution and 3 received cysteamine. […] This is a reduction of 13%.", "note": "Where “and” joins values, the source holds several entries; their conditions need not be identical. Equal entries are not always repeated. Entries after “also recorded” stand apart in the source; their conditions may differ."}
{"smiles": "NCCS", "note": "[cysteamine, Cysteamine]", "values": [{"measurement": "IA (Ischemic Area)", "setting": "MEAN of 3 mice", "result": 7.99}, {"measurement": "IA/LV (cysteamine) (%)", "setting": "MEAN of 3 mice, control 17.66%", "result": 8.12, "unit": "%"}, {"measurement": "IA/AAR (cysteamine) (%)", "setting": "MEAN of 3 mice, control 58.57%", "result": 33.24, "unit": "%"}, {"measurement": "mean end diastolic volume (EDV), 24 h vs 72 h", "setting": "cysteamine group, p=0.032", "result": "significant difference; also recorded: significant reduction"}, {"measurement": "relative amounts of ischemic damage compared with control groups", "setting": "cysteamine treated vs control", "result": "about half"}, {"measurement": "IA/AAR (cysteamine) (%)", "setting": "individual mice (raw data)", "result": "38.02% and 34.78% and 26.92%"}, {"measurement": "IA/LV (cysteamine) (%)", "setting": "individual mice (raw data)", "result": "12.66% and 6.24% and 5.47%"}, {"measurement": "IA (Ischemic Area)", "setting": "individual mice (raw data), cysteamine 60 mg/kg twice daily", "result": "9.37 and 11.14 and 3.46"}, {"measurement": "IA/AAR ratio, cysteamine vs control group", "setting": "p=0.004", "result": "significant reduction; also recorded: significant difference"}, {"measurement": "IA/LV ratio, cysteamine vs control group", "setting": "p=0.008", "result": "significant reduction; also recorded: significant difference"}, {"measurement": "percentage change in ESV between 24 h and 72 h, vs control group", "setting": "p=0.039", "result": "significantly greater percentage reduction"}, {"measurement": "percentage change in EDV between 24 h and 72 h, vs control group", "setting": "p=0.04", "result": "significantly greater percentage reduction; also recorded: significant difference"}]}
